The values that follow come from patent US20170137410A1, “FUSED CYCLOALKYL-PYRIMIDINE COMPOUNDS AND USES THEREOF” (Medivation Technologies, Inc., priority 2014, published 2017).

For one test, the target named is T1, FLT3 (D835Y) (Homo sapiens, UniProt P36888, D835Y).
T1 sequence (P36888 27-993 D835Y): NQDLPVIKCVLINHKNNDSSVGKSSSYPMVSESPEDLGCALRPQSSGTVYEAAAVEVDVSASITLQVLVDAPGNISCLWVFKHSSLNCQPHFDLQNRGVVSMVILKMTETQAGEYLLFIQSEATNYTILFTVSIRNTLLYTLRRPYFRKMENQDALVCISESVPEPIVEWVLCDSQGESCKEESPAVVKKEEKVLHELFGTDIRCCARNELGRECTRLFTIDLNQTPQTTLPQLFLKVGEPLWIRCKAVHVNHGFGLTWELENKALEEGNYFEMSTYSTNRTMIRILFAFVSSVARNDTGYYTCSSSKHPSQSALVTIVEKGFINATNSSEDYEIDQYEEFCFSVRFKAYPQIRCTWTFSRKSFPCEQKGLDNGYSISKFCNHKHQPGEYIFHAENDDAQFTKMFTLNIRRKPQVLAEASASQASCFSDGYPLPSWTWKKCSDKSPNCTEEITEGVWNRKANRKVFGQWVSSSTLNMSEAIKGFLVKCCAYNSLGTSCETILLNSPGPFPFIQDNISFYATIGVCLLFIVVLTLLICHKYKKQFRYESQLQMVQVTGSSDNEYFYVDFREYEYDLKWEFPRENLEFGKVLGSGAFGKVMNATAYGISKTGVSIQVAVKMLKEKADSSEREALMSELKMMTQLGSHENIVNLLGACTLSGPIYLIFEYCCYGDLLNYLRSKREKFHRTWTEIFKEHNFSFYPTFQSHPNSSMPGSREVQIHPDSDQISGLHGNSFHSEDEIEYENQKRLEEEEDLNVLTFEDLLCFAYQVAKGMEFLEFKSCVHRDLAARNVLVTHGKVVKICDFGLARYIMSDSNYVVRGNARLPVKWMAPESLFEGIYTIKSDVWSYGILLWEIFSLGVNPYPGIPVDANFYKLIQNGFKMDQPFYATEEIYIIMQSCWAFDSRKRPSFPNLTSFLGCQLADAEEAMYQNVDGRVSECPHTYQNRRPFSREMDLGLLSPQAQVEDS
Briefly: HotSpot kinase assay against FLT3 (D835Y). Conditions: HotSpot 33P assay, ATP 10 μM. In kind it is biochemical. The protocol: Kinase assays were performed using test compounds against a panel of FLT3 kinases: FLT3; FLT3 (D835Y); and FLT3 (ITD). Compounds were prepared as 10 mM stock solutions in DMSO prior to use in the assay. Each compound was tested at 10 concentrations with three-fold serial dilution starting at 1 μM against the three kinases. The control compound, staurosporine, was tested at 10 concentrations with four-fold serial dilution starting at 20 μM. IC50 values and curve fits were obtained using Prism (GraphPad Software). The screening was performed using the “HotSpot” assay platform. The assay measures the conversion of a peptide substrate to ^33P-labelled phosphorylated product. Briefly, specific kinase/substrate pairs along with required cofactors were prepared in reaction buffer. Specifically, the substrate was prepared in reaction buffer (20 mM Hepes, pH 7.5; 10 mM MgCl2; 1 mM EGTA; 0.02% Brij35; 0.02 mg/mL BSA; 0.1 mM Na3VO4; 2 mM DTT; 1% DMSO), followed by delivery of any required cofactor to the resulting substrate solution. The corresponding kinase was delivered into the substrate solution and the reaction mixture was mixed gently. Compound was delivered into the reaction mixture, followed 15-20 min later by addition of a mixture of ATP (Sigma, St. Louis Mo.) and ^33P ATP (specific activity 0.01 μCi/μL final; Perkin Elmer, Waltham, Mass.) to a final concentration of 10 μM to initiate the reaction. Reactions were carried out at RT for 120 min, followed by spotting of the reactions onto P81 ion exchange filter paper (Whatman #3698-915; Whatman Inc., Piscataway, N.J.). Unbound phosphate was removed by extensive washing of filters in 0.75% phosphoric acid. […] The percent of enzyme inhibition was calculated based on the percent of remaining kinase activity. IC50 values were determined.

The target of another test is T2, activated IR (Homo sapiens, UniProt P06213).
T2 construct: purchased Millipore 14-803
Briefly: In vitro IR enzymatic assay (ADP-Glo). It counts as biochemical. To be noted: ATP 50 μM. An outline of the steps:
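Inhibition of the insulin receptor kinase was measured in vitro with Promega's ADP-Glo kinase assay kit. Each reaction contained 1 ng of active recombinant IR (Millipore #14-803), the Axl tide substrate (Millipore #12-516) at 125 μM, and ATP at 50 μM. Reactions ran at 30° C. for 20 min across increasing test compound concentrations.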

T2 sequence (P06213 28-1382): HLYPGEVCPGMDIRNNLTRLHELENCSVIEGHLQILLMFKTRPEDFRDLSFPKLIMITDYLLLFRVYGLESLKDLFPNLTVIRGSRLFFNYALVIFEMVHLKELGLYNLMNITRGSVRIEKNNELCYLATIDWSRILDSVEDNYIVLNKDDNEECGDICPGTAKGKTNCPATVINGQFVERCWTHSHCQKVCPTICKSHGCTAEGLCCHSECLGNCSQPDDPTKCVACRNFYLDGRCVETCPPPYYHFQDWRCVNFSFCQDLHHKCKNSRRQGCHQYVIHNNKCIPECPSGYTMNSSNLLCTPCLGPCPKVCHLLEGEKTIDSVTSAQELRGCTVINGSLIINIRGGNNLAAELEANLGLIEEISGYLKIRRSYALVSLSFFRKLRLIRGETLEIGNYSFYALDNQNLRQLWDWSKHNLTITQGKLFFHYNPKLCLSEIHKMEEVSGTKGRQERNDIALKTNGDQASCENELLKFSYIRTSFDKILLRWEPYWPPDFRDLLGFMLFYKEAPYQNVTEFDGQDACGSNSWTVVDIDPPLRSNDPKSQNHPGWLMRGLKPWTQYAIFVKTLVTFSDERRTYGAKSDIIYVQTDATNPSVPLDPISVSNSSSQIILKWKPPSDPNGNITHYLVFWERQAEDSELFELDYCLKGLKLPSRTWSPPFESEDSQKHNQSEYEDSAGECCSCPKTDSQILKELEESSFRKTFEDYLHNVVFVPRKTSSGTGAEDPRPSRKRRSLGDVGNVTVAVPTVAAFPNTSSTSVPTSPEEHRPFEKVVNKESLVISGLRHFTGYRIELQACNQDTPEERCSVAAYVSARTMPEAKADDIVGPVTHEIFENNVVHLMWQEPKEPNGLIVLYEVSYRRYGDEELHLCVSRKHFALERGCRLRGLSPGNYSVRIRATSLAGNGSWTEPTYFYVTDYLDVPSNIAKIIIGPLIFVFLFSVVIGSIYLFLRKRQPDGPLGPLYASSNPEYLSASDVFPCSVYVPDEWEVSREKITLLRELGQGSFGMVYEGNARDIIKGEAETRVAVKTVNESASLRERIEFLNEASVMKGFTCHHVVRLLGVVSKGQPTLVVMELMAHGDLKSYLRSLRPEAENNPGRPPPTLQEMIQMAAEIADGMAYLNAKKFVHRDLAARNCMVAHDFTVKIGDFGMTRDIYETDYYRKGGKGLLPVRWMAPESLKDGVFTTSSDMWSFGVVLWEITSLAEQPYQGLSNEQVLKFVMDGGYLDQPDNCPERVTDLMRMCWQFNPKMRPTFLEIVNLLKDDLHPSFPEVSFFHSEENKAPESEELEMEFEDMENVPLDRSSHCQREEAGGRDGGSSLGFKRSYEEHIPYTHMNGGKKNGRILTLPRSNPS

`CCN(C(=O)[C@@H]1CCCN1c1nc2c(c(Nc3cc(C(C)(C)C)[nH]n3)n1)CCC2)c1nccs1` [144b, (S)-1-(4-((5-(tert-butyl)-1 H-pyrazol-3-yl)amino)-6,7-dihydro-5H-cyclopenta[d]pyrimidin-2-yl)-N-ethyl-N-(thiazol-2-yl)pyrrolidine-2-carboxamide]: the values for the IC50 on FLT3 (D835Y) and against activated IR were > 1000 nM and 5960 nM, respectively.

Consider `CCC(=O)N1CCN(C(=O)[C@@H]2CCCN2c2nc3c(c(Nc4cc(C5CCCC5)[nH]n4)n2)CCC3)CC1` [143b, (S)-1-(4-((4-((5-cyclopentyl-1H-pyrazol-3-yl)amino)-6,7-dihydro-5H-cyclopenta[d]pyrimidin-2-yl)prolyl)piperazin-1-yl)propan-1-one], for which the half-maximal inhibitory concentration (IC50) against FLT3 (D835Y) is 187 nM; against activated IR, 17200 nM.

For the compound `CCN(C(=O)[C@@H]1CCCN1c1nc2c(c(Nc3cc(C(C)C)[nH]n3)n1)CCC2)c1nccs1` [145b, (S)—N-ethyl-1-(4-((5-isopropyl-1H-pyrazol-3-yl)amino)-6,7-dihydro-5H-cyclopenta[d]pyrimidin-2-yl)-N-(thiazol-2-yl)pyrrolidine-2-carboxamide], the IC50 against FLT3 (D835Y) was found to be 262 nM; on activated IR, 670 nM.

For `CC(C)(C)c1cc(Nc2nc(N3CCC[C@@H]3C(=O)N3CCC(F)(F)CC3)nc3c2CCC3)n[nH]1` [142a, (R)-(1-(4-((5-(tert-butyl)-1H-pyrazol-3-yl)amino)-6,7-dihydro-5H-cyclopenta[d]pyrimidin-2-yl)pyrrolidin-2-yl)(4,4-difluoropiperidin-1-yl)methanone], the figures for the concentration for half-maximal inhibition (IC50) against FLT3 (D835Y) and on activated IR were > 1000 nM and 2940 nM, respectively.

On to `CC(C)c1cc(Nc2nc(N3CCC[C@H]3C(=O)N(C)c3nccs3)nc3c2CCC3)n[nH]1` [68b, (S)-1-(4-((5-isopropyl-1H-pyrazol-3-yl)amino)-6,7-dihydro-5H-cyclopenta[d]pyrimidin-2-yl)-N-methyl-N-(thiazol-2-yl)pyrrolidine-2-carboxamide], for which the IC50 against FLT3 (D835Y) was 83.8 nM; on activated IR it was 364 nM. In addition, 1 µM produced 77% inhibition against activated IR (compound 1 μM).

Turning to `CC1(C(=O)N2CCC(F)(F)CC2)CCCN1c1nc2c(c(Nc3cc(C4CCCC4)[nH]n3)n1)CCC2` (racemic) [compound 146, (1-(4-((5-cyclopentyl-1H-pyrazol-3-yl)amino)-6,7-dihydro-5H-cyclopenta[d]pyrimidin-2-yl)-2-methylpyrrolidin-2-yl)(4,4-difluoropiperidin-1-yl)methanone], the results for the IC50 against FLT3 (D835Y) and on activated IR were 1570 nM and > 30000 nM, respectively.

`CC(C)(C)c1cc(Nc2nc(N3CCC[C@H]3C(=O)N3CCC(F)(F)CC3)nc3c2CCC3)n[nH]1` [142b, (S)-(1-(4-((5-(tert-butyl)-1H-pyrazol-3-yl)amino)-6,7-dihydro-5H-cyclopenta[d]pyrimidin-2-yl)pyrrolidin-2-yl)(4,4-difluoropiperidin-1-yl)methanone]: the IC50 is > 1000 nM against FLT3 (D835Y) and 11600 nM against activated IR.

`CCC(=O)N1CCN(C(=O)[C@H]2CCCN2c2nc3c(c(Nc4cc(C5CCCC5)[nH]n4)n2)CCC3)CC1` [143a, 1-(4-((4-((5-cyclopentyl-1H-pyrazol-3-yl)amino)-6,7-dihydro-5H-cyclopenta[d]pyrimidin-2-yl)-D-prolyl)piperazin-1-yl)propan-1-one]: the IC50 against FLT3 (D835Y) stood at 14 nM; on activated IR it was 650 nM.
